Drawing on PubChem BioAssay (NCI), this text covers TGI and GI50 for 16 molecules.

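Values below derive from 48-hour exposures of cells grown in 96-well plates, with endpoints linearly interpolated between the two concentrations bracketing the appropriate inhibition level. Here, GI50 denotes the concentration required for 50% inhibition of growth. Definition used: TGI = concentration required for complete inhibition of growth.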 A value given as a limit tells only on which side of the number the result lay.

Test in all cases: NCI anticancer screen, dose series, 48 h
In test [1] the test system is SK-OV-3 ovarian.
Test [2] has as its system KM12 colon.
In test [3] the test system is TK-10 renal.
Test [4] concerns SNB-19 CNS.
The test system of test [5] is NCI-H522 lung.
The subject of test [6] is OVCAR-3 ovarian.
In test [7] the test system is EKVX NSCLC.
The test system of test [8] is HL-60(TB) leukemia.
For test [9], the system named is SK-MEL-28 melanoma.
In test [10] the test system is ACHN renal.

As to `O=C1C(Cl)N(c2ccccc2Cl)C1c1c[nH]c2ccccc12` (stereo unspecified), the TGI in test [1], in [2], in test [3], in test [4], in [5] and in test [6] was more than 100 µM throughout. Further, the TGI in [7], in [8] and in test [9] was more than 100 µM in each case.

`Oc1ccc(C(=C(Br)c2ccccc2)c2ccc(O)cc2)cc1`: the TGI stood at 16.9 µM in [1]; 13.5 µM in [2]; 31.8 µM in [3]; 17.1 µM in test [4]; 17.6 µM in [5]; 8.99 µM in test [6]. In addition, the TGI in test [7] was 26.2 µM; in test [8] it was more than 100 µM; in test [9], 24 µM; in [10], 21.7 µM.

As to `C=C(C#N)C(=O)OCC(CC)CC.C=C(C#N)C(=O)OCC(CC)CC.CS(C)=O.CS(C)=O.Nc1c(N=Nc2ccc(-c3ccc(N=Nc4cc(S(=O)(=O)[O-])c5ccccc5c4N)cc3)cc2)cc(S(=O)(=O)[O-])c2ccccc12.[Pt+2]`, the GI50 in test [1] was 97.9 µM; in test [2], 46.6 µM; in test [4], more than 100 µM; in [5], 13.7 µM; in [6] it was 25.9 µM; in [7], 26 µM. Further, the figures for the GI50 in test [8] and in test [9] were 15.8 µM and 21.7 µM, respectively. For the same molecule, the TGI in [1] was more than 100 µM; in test [2], more than 100 µM; in test [4], more than 100 µM; in test [5] it was 19.3 µM; in [6], more than 58 µM; in test [7], 63.3 µM. Further, the TGI in test [8] is 23.6 µM; in test [9], 43 µM.

`COc1ccc2nc3cc(Cl)ccc3c(NC(C)CCCN(CCCl)CCCl)c2c1` (stereo unspecified): the TGI in test [1] was found to be 6.59 µM; in test [2] it was 4.6 µM; in test [3] it was 6.04 µM; in test [4] it was 7.15 µM; in test [5], 2.24 µM; in [6] it was 6.87 µM. The TGI in test [7] turned out to be 18.2 µM; in test [8], 0.94 µM; in [9], 18.4 µM; in test [10] it was 3.17 µM.

For the molecule `Cc1ccc(S(=O)(=O)N(CC(O)COc2ccccc2)c2c(F)cccc2F)cc1` (stereo unspecified), the TGI was 41.3 µM in test [1]; 56.3 µM in test [2]; 97.5 µM in test [3]; more than 100 µM in test [4]; 30.3 µM in [6]; 95.7 µM in test [7]. Moreover, the TGI came out at 93.1 µM in test [8], 31 µM in test [9] and 40.1 µM in test [10].

Turning to `COC(=O)c1cc2c(cc1Cl)Sc1nnc(Nc3ccccc3)n1S2(=O)=O`, the TGI came to 19.4 µM in [1]; 8.11 µM in test [2]; 8.66 µM in test [3]; 7.98 µM in test [4]; 3.26 µM in test [5]; 3.36 µM in test [6]. For the same molecule, the TGI in [7] was found to be 19.9 µM; in test [8], 7.62 µM; in test [9] it was 10.5 µM; in test [10] it was 4.16 µM.

Regarding `O=C1c2cc(O)c(O)cc2O[C@H](c2ccc(O)c(O)c2)[C@H]1O`, the TGI in test [1], in [2], in test [3], in [4], in [5] and in test [6] was more than 100 µM throughout. Also, the TGI in test [7], in test [8], in test [9] and in test [10] was more than 100 µM each time.

Regarding `O=C1c2cc3c(cc2-c2c1c1ccc(Cl)cc1c(=O)n2C[C@H](O)CO)OCO3`, the GI50 in test [1] was 0.0444 µM; in test [2] it was 0.113 µM; in [3] it was 0.277 µM; in test [5] it was 0.0422 µM; in test [6] it was 0.0615 µM; in test [7], 0.153 µM. Besides, the GI50 was 0.0331 µM in [8], 0.2 µM in test [9] and 0.0199 µM in test [10]. Moreover, the TGI is 1.66 µM in test [1]; 0.618 µM in [2]; 1.76 µM in [3]; 1.82 µM in test [5]; 0.316 µM in [6]; 1.52 µM in [7]. Further, the TGI in [8] came out at 3.1 µM; in [9], 1.28 µM; in test [10] it was 0.111 µM.

Take `O=C1c2ccccc2C(=O)c2[nH]cnc21`: the TGI is more than 100 µM in test [2]; more than 100 µM in test [3]; more than 100 µM in [4]; more than 100 µM in test [5]; 66.2 µM in test [6]; more than 100 µM in test [7]. Further, the TGI in test [8], in test [9] and in test [10] was more than 100 µM in each case.

With `Cc1ccc(S(=O)(=O)OC2CC(C(C)(C)C)CCC2c2ccccc2)cc1` (stereo unspecified), the TGI in test [1], in test [2], in test [3], in [4], in [6] and in test [7] was more than 100 µM throughout. The TGI in [8], in test [9] and in [10] was more than 100 µM in each case.

`CCOC(=O)c1c2c(n(-c3ccc(C)cc3)c1C)-c1ccccc1C(=O)C2(C(=O)OCC)C(=O)OCC`: the TGI in test [1] was more than 100 µM; in test [2] it was more than 100 µM; in [3], more than 100 µM; in test [4], more than 100 µM; in test [5], 79.9 µM; in [6], 69.2 µM. Moreover, the TGI is more than 88.2 µM in test [7], 18.6 µM in [8], more than 85.5 µM in test [9] and more than 100 µM in test [10].

On to `CN1C(=O)CC(=O)N1/C(=C/c1ccccc1)c1ccccc1`, for which the TGI was more than 100 µM in [1]; more than 100 µM in test [2]; 91.9 µM in test [3]; more than 100 µM in test [4]; more than 100 µM in test [6]; more than 100 µM in test [7]. Moreover, the TGI in test [9] and in test [10] was more than 100 µM each time.

With `CCN(CC)CCNc1ccc2ncn3c4ccc(O)cc4c(=O)c1c23`, the TGI in test [1] is 18.2 µM; in [2], 10.6 µM; in [3], 20.1 µM; in test [4], 19.2 µM; in test [5] it was 15.7 µM; in test [6] it was 13.6 µM. Further, the TGI in test [7] was 21.9 µM; in test [8], 11.6 µM; in test [9], 21.8 µM; in [10] it was 2.89 µM.

Turning to `C=CCNC(=O)C(C)C1CCC2(C)C=CC(=O)C(C)=C2C1O` (stereo unspecified), the TGI in [1], in test [2], in [4], in test [5], in [6] and in test [7] was more than 100 µM throughout. Moreover, the TGI in test [8] and in test [9] was more than 100 µM throughout.

Take `CSCCC(C(=O)O)N(C)C` (stereo unspecified): the TGI in [1], in test [2], in [3], in [4], in [5] and in test [6] was more than 100 µM each time. For the same molecule, the TGI in test [7], in test [8], in test [9] and in test [10] was more than 100 µM throughout.

Turning to `O=C(CSCC(=O)N/N=C/c1cccc(O)c1)N/N=C/c1cccc(O)c1`, the TGI in test [1], in [2], in [3], in [4], in test [5] and in test [6] was more than 100 µM each time. The TGI in test [7], in [8], in test [9] and in test [10] was more than 100 µM each time.
